For 16 molecules, Ki, MIC and Activity results are on record in ChEMBL document CHEMBL2046276, “Molecular cloning, characterization, and inhibition studies of a β-carbonic anhydrase from Malassezia globosa, a potential antidandruff target” (J Med Chem, 2012).

The target of assay [1] is T1, Carbonic anhydrase (Candida albicans (strain SC5314 / ATCC MYA-2876) (Yeast), UniProt Q5AJ71).
T1 sequence (Q5AJ71 whole entry): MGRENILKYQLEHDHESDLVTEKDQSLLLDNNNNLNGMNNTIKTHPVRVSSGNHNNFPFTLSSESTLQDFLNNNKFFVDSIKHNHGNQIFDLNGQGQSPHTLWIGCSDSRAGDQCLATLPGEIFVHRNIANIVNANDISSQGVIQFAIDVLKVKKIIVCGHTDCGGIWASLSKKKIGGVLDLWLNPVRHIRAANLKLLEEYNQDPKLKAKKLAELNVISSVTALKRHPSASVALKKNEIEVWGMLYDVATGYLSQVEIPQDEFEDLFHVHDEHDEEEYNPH

For assay [2], the system named is Malassezia furfur. Briefly: microbe, parasite or virus in culture. To be noted: CBS 9569, 168 h.
Assay [3] concerns Malassezia dermatis. Briefly: microbe, parasite or virus in culture. To be noted: CBS 9145, 168 h.
For assay [4], the system named is Malassezia pachydermatis. The assay is described as follows: microbe, parasite or virus in culture. To be noted: CBS 6536, 168 h.
Assay [5] can be described thus: microbe, parasite or virus in culture. To be noted: Malassezia globosa, CBS 7966, 168 h.
The test system of assay [6] is Malassezia pachydermatis. The assay is described as follows: Antimicrobial activity against Malassezia pachydermatis infected in CD-1 mouse model of dandruff assessed as improvement in skin appearance at 5% cream administered once daily for 6 days measured daily for 20 days. Format: functional.
Assay [7] concerns Malassezia pachydermatis. The assay is described as follows: Antimicrobial activity against Malassezia pachydermatis infected in CD-1 mouse model of dandruff assessed as fungal hyphae fragmentation at 5% cream administered once daily for 6 days measured daily for 20 days. Format: functional.
Assay [8] has as its system Malassezia pachydermatis. The assay is described as follows: Antimicrobial activity against Malassezia pachydermatis infected in CD-1 mouse model of dandruff assessed as improvement in skin appearance at 2% cream administered once daily for 6 days measured daily for 20 days. Format: functional.
The subject of assay [9] is Malassezia pachydermatis. The assay is described as follows: Antimicrobial activity against Malassezia pachydermatis infected in CD-1 mouse model of dandruff assessed as fungal hyphae fragmentation at 2% cream administered once daily for 6 days measured daily for 20 days. Format: functional.

In general, Ki refers to the dissociation constant of the complex between target and ligand, obtained from inhibition or displacement. A lower Ki goes with higher affinity.

Values after ≈ are worked out from the molar mass of the structure shown. Active and inactive are the calls of the source. The calls are words filed in the database; no cut-off is given here.

In [1], `NS(=O)(=O)Nc1ccc(Br)cc1` displayed a Ki of 0.763 µM.

For `NS(=O)(=O)Oc1ccccc1` [PHENYLSULFAMATE], the affinity in assay [1] corresponds to a Ki of 1.97 µM.

In the case of `Nc1ccc(S(N)(=O)=O)cc1` [SULFANILAMIDE], the MIC in assay [2] turned out to be 80 µg/mL (≈ 465 µM); in assay [3], 160 µg/mL (≈ 929 µM); in assay [4], 10 µg/mL (≈ 58.1 µM); in assay [5] it was 80 µg/mL (≈ 465 µM).

With `Nc1cc(C(F)(F)F)c(S(N)(=O)=O)cc1S(N)(=O)=O` [2,4-DISULFAMYLTRIFLUOROMETHYLANILINE], the MIC in [2] is > 640 µg/mL; in assay [3] it was > 640 µg/mL; in [4], > 640 µg/mL; in [5], 320 µg/mL (≈ 1000 µM).

On to `Cc1ccc(S(N)(=O)=O)cc1` [P-TOLUENESULFONAMIDE], for which the figures for the MIC in assay [2] and in assay [5] were 640 µg/mL (≈ 3740 µM) and 160 µg/mL (≈ 934 µM), respectively.

Take `Nc1ccccc1S(N)(=O)=O`: the MIC in assay [2] was 640 µg/mL (≈ 3720 µM); in assay [3], 640 µg/mL (≈ 3720 µM); in assay [4], > 640 µg/mL; in [5], 640 µg/mL (≈ 3720 µM).

For the molecule `NS(=O)(=O)c1ccc(C(=O)O)cc1` [CARZENIDE], the MIC in assay [2] is > 640 µg/mL; in assay [3] it was > 640 µg/mL; in assay [4], 640 µg/mL (≈ 3180 µM); in assay [5], 640 µg/mL (≈ 3180 µM).

In assay [1], `NS(=O)(=O)Oc1ccc(Br)cc1` yielded a Ki of 0.715 µM.

In the case of `NS(=O)(=O)c1ccccc1` [BENZENESULFONAMIDE], affinity in assay [1] was put at a Ki of 2.36 µM. The MIC in assay [2] was 160 µg/mL (≈ 1020 µM); in assay [3] it was > 640 µg/mL; in assay [4], 160 µg/mL (≈ 1020 µM); in assay [5] it was 320 µg/mL (≈ 2040 µM).

In the case of `NCCc1ccc(S(N)(=O)=O)cc1`, in [6], the Activity is 67%. In addition, the result in assay [7] was Active. Also, the MIC came out at 640 µg/mL (≈ 3200 µM) in assay [2], 640 µg/mL (≈ 3200 µM) in assay [3], 640 µg/mL (≈ 3200 µM) in assay [4] and 320 µg/mL (≈ 1600 µM) in assay [5].

For the molecule `CC(=O)N1CCN(c2ccc(OCC3COC(Cn4ccnc4)(c4ccc(Cl)cc4Cl)O3)cc2)CC1` (configuration not stated), the outcome in assay [8] and in assay [9] was Active.

With `NS(=O)(=O)Nc1ccccc1` [PHENYLSULFAMIDE], in assay [1], affinity was put at a Ki of 1.91 µM.

Molecule `NS(=O)(=O)c1ccc(Br)cc1` returned an inhibition constant Ki in assay [1] of 0.894 µM. In addition, the MIC in assay [2], in [3], in assay [4] and in assay [5] was 320 µg/mL (≈ 1360 µM) throughout.

Take `Nc1cc(Cl)c(S(N)(=O)=O)cc1S(N)(=O)=O`: the MIC in assay [2], in assay [3], in [4] and in assay [5] was 640 µg/mL (≈ 2240 µM) each time.

Consider `NCc1ccc(S(N)(=O)=O)cc1` [MAFENIDE], for which the MIC in [2] is 320 µg/mL (≈ 1720 µM); in [3] it was 160 µg/mL (≈ 859 µM); in assay [4], 160 µg/mL (≈ 859 µM); in assay [5], 160 µg/mL (≈ 859 µM).

On to `NS(=O)(=O)c1cc(Cl)c(Cl)c(S(N)(=O)=O)c1` [DICHLORPHENAMIDE], for which the MIC in [2] was > 640 µg/mL; in assay [3], > 640 µg/mL; in assay [4], > 640 µg/mL; in assay [5] it was 320 µg/mL (≈ 1050 µM).
